Laboratory results taken from patent US7592503B2, “Mammalian telophase oocyte enucleation” (Trustees of Tufts College, priority 1998, dated 2009).

Columns and labels:
[1] = tested on: mouse metaphase II oocytes; test: Treatment-induced nuclear chromatin enucleation of activated oocytes (H33342 staining, fluorescence microscopy); format: cell-based; conditions: for rate of treatment-induced chromatin enucleation: ethanol- or ionomycin-activated B6D2 oocytes, Taxol 5 μg/ml, Cycloheximide 10 μg/ml, Demecolcine 0.4 μg/ml in PBS+10% FBS, 0.5-1.5 h post activation; for rate of treatment-induced chromatin enucleation (range in parentheses): same treatments, range printed in parentheses
Description: Advances in somatic cell nuclear transfer (NT) methodology have seen the procession of cloned sheep, cows, mice and goats. Despite the clear potential use of this technology for genetic manipulations, the success rates remain woefully low. The limitations associated with nuclear transfer include the selection and preparation of competent donor cytoplasts. The cytoplasm plays a vital role in genome reprogramming and reactivation and therefore manipulations that compromise oocyte developmental competence are detrimental to the success of nuclear transfer. The present study was directed towards determining alternative methods to more efficiently prepare competent cytoplasts for nuclear transfer procedures. In experiment 1, in vivo-produced mouse metaphase II oocytes (B6D2, aguti, recovered at 16-20 h post hCG) were activated by exposure to either 7% ethanol or 2 μm ionomycin in PBS+10% FBS (5 min.). At the onset of initial second polar body formation (10-15 min. post activation) and extrusion (anaphase/telophase stage), oocytes were randomly allocated to control (cultured 0.5-1.5 h) or incubated with Taxol® (5 μg/ml), Cycloheximide (10 μg/ml) or in Demecolcine (0.4 μg/ml) in PBS+10% FBS until the second polar body was extruded (0.5-1.5 h post activation) to induce nuclear chromatin enucleation. Oocytes were stained (H33342, 5 μg/ml) to confirm the extent of nuclear chromatin enucleation using fluorescence microscopy. […] In experiment 2, Demecolcine-induced enucleated cytoplasts were used for nuclear transfer recipients. Donor nuclei were prepared from cumulus cells (Black Swiss) by partial lysis (1% sodium citrate) followed by aspiration using the injection pipette (7 um). Donor nuclei were injected into cytoplasts pretreated with Cytochalasin-B (5 μg/ml, 15 min.). Reconstructed NT embryos were subsequently co-cultured (72-96 h) with oviductal cells in drops of M-199+10% FBS. The cleavage rate was 70% (85/121) and the rate of blastocyst formation was 42% (51/121). Pregnancies were established in 2/3 recipients (CD1, white) following uterine embryo transfer (10 embryos/recipient). A total of 14 black female pups were born (47%, 14/30), seven of which were stillborn from 1 recipient and the other seven were born live (23%, 7/30) but 3 were cannibalized within 24 h. The 4 cloned pups were normal and healthy, and their fertility is being assessed. […] Moreover, cytoplasts derived from this enucleation procedure are competent to support genome reactivation and fetal development to term. This technically simple approach may provide a more efficient method to produce large numbers of cytoplasts for cloning procedures.

mouse oocytes = test: Activation of metaphase II oocytes to Telophase II stage in vitro; format: cell-based; conditions: ionomycin 4 μM, 5 min; 3 replicate experiments
Experimental: Oocytes were collected from superovulated mice by flushing oviducts to collect metaphase II stage oocytes. Oocytes were then activated by one of two methods to reach the Telophase II state in vitro: culture-induced Ca^2+ activation or ionomycin activation (4 μM, 5 min), and enucleated. Karyoplasts were prepared from cumulus cells (natural G0 stage) and nuclear transfer was conducted followed by electrical fusion with Telophase II cytoplasts.

## C[C@@H]1C[C@@H]([C@H](O)CC2CC(=O)NC(=O)C2)C(=O)[C@@H](C)C1 [Cycloheximide]
[1]
  rate of treatment-induced chromatin enucleation: 16.3%
  rate of treatment-induced chromatin enucleation (range in parentheses): 0-24%

## CN[C@H]1CCc2cc(OC)c(OC)c(OC)c2-c2ccc(OC)c(=O)cc21 [Demecolcine]
[1]
  rate of treatment-induced chromatin enucleation: 54%
  rate of treatment-induced chromatin enucleation (range in parentheses): 27-70%

## C[C@H](CCC(=O)O)C[C@H](C)C[C@H](C)C(=O)/C=C(\O)[C@H](C)C[C@H](C)C/C=C/[C@@H](C)[C@@H](O)[C@@H](C)[C@@H](O)C[C@@H]1CC[C@@](C)([C@H]2CC[C@@](C)([C@@H](C)O)O2)O1 [Ionomycin, ionomycin]
Mouse oocytes
  Activation, Number (activated/treated oocytes): 46/50
  Activation, Percent: 92%

## CC(=O)O[C@H]1C(=O)[C@@]2(C)[C@H]([C@H](OC(=O)c3ccccc3)[C@]3(O)C[C@H](OC(=O)[C@H](O)[C@@H](NC(=O)c4ccccc4)c4ccccc4)C(C)=C1C3(C)C)[C@]1(OC(C)=O)CO[C@@H]1C[C@@H]2O [Taxol®, paclitaxel]
[1]
  rate of treatment-induced chromatin enucleation: 3.6%
  rate of treatment-induced chromatin enucleation (range in parentheses): 0-10%
